From patent US7973024B2, “24-sulfoximine vitamin D3 compounds” (Cyctochroma Inc., priority 2002, dated 2011) come the findings set out here.

A value given as a limit tells only on which side of the number the result lay.

The target in test [1] is T1, CYP24 (Homo sapiens, UniProt Q07973).
T1 construct: expressed in transfected cells
T1 sequence (Q07973 36-514): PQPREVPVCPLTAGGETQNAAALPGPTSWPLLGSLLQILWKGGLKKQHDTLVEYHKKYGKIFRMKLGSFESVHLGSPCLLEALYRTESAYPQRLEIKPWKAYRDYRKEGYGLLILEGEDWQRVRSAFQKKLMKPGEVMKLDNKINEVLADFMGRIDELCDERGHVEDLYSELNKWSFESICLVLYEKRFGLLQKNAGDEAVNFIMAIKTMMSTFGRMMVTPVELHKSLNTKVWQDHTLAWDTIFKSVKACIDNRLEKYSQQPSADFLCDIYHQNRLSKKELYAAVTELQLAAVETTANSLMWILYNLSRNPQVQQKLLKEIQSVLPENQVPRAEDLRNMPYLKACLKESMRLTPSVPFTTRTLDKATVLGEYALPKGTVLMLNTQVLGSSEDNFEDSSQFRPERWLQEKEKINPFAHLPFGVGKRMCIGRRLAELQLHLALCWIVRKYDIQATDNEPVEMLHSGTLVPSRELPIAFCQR
The experiment in a line: CYP24 enzyme assay (stable cell line V79-CYP24 cells). Format: cell-based. Particulars: [3H-1β]-1α,25(OH)2D3 20 nM, 2 hours. The procedure:
1. Preparation of Cell Suspension • On the day of the assay, washed the monolayer of V79-CYP24 cells once with 1×PBS buffer and then trypsinize for 5 min at room temperature (approx. 22° C.). Added 1×PBS. Collected cells into tube, centrifuged cells (500×g, 5 min) and resuspended in DMEM+1% BSA media.
2. Cell Plating • Added 150 μl of cell suspension to appropriately labelled wells of a 48-well plate. Incubated plate for 30 minutes at 37° C. in a humidified atmosphere containing 5% CO2 for adherence of cells to wells.
3. Compound Addition • Added 25 μl of inhibitor (10^−6 to 10^−9 M) and then after 10 min added 25 μl of substrate [^3H-1β]-1α,25(OH)2D3 (20 nM) for 2 hours at 37° C. in a humidified atmosphere containing 5% CO2. Both inhibitor and substrate were prepared in DMEM with 1% BSA media in the absence and presence of 100 μM DPPD.
4. Lipid Extraction and Counting • Added 500 μL of methanol to stop the reaction. Transferred to tube. Added 250 μl of dichloromethane and vortexed. Added 250 μl of dichloromethane and 250 μl of saturated KCL and vortexed. Centrifuged at 4000 rpm for 5 min. Triplicate 100 μl aliquots of aqueous fraction were mixed with 600 μl of scintillation fluid and the radioactivity was measured using a scintillation counter. All values were normalized for background. (iii) Results.

A further test deals with SCC-25 cells. The test is described as follows: [3H]-thymidine proliferation assay with SCC-25 cells. Format: cell-based. Conditions: together with calcitriol, three days, [3H]-thymidine 6 h. As for the experimental part:
1. Preparation of Cell Suspension • When SCC-25 cells were 70-80% confluent, aspirated media. Washed the cells with 1×PBS. Trypsinized with trypsin-EDTA from the plate, collected cells from the tissue culture flask, centrifuged (500×g, 5 min) and resuspended in media.
2. Cell Plating. • Counted the cells and adjusted the cell density to 10,000/ml. Added 200 μl per well in a 96 well plate. Incubated plate for 24 h at 37° C. in a humidified atmosphere plus 5% CO2. Aspirated used media and replaced with 150 μl per well with media.
3. Compound Addition. • Added 25 μl of 1α,25(OH)2D3 (final concentration 10^−6M, 10^−7 M, 10^−8 M, M, 10^−10 M, 10^−11 M) into each designated well. Added 25 μl of substrate (final concentration 10^−7 M, 5×10^−8 M, 10^−8 M or 10^−9 M) into each designated well. Incubated plates for 3 days at 37° C. in a humidified atmosphere plus 5% CO2.
4. ^3H-Thymidine Incorporation. • Added ^3H-thymidine at 0.02 μCi per well and incubated at 37° C. in a humidified atmosphere plus 5% CO2 for 6 h.
5. Plate Harvesting. • Aspirated all media and washed cells with 1×PBS. Trypsinized cells for 30 min at 37° C. in a humidified atmosphere plus 5% CO2. Harvested cells onto a 96 well filter plate (Millipore) using a Tomtec Cell Harvestor, according to manufacturers instructions.
6. Scintillation Counting. • Added 25 μl of scintillation fluid per well. Counted the plate using a scintillation counter.

Test [2] concerns the target T1, CYP24. The experiment in a line: CYP24 enzyme assay (induced HPK1A-ras cells). Conditions: HPK1A-ras cells induced with 1,25(OH)2D3; [3H]-1,25(OH)2D3 substrate, 2 hour. The format is cell-based. As for the experimental part:
1.25(OH)2D3 10^−5 M (Sigma, St. Louis, Mo.);
Preparation of 10^−5 M working solution is as follows:
Dissolve 1 mg of 1,25(OH)2D3 into 480 μl of isopropanol to make 5×10^−3 M stock solution. Store at −70° C. until needed. Aliquot 1 μl of 1.25(OH)2D3 5×10^−3 M stock solution to 499 μl of isopropanol to make 1.25(OH)2D3 10^−5 working solution. Store at −20° C. until needed. […] Induction of HPKIA-ras cells (The day before assay) • When the HPK1A-ras cells were 80-90% confluent, added 1 μL 10^−5 M 1.25(OH)2D3 to 1 mL medium in the plate (final concentration is 10^−8 M). • 2. Preparation of cell suspension • After 18 to 20 hours induction, removed the medium and washed the cell twice with PBS. Then tripsinized the cells from plate, centrifuged (2,000 rpm, 5 min) and suspended cells pellet in DMEM medium+1% BSA. • Counted the cells and adjusted cells density to 250,000/150 μL, added 150 μL cell suspension to each well in 48-well plate (including 3 wells as a no cell control, and 3 well cells without drug or inhibitor as controls). • 3. […] Kept the plate in 37° C. for 10 min. • 4. Preparation of substrate • For each ml required, added 972 μl of DMEM+1% BSA medium, 20 μl of 3H-1,25(OH)2D3, and 8 μl of 100 nM DPPD to a tube and vortexed. • 5. Incubation • Added 25 μL substrate to each well, incubated the plate at 37° C. for 2 hour. • Added 25 μL substrate to counting plate (2 well) as a total count. • 6. Lipid Extraction and Counting • Added 500 μL methanol to each well to stop the reaction, transferred them to tube. • Added 250 μL dichloromethane and vortex. • Added 250 μL dichloromethane and […] saturated KCI, and vortex. • Centrifuged at 4000 rpm for 5 min. • Transferred 100 μL of aqueous phase (upper phase) to counting plastic counting plate. Added 600 μL of scintillation fluid to each well. Counted the plate in scintillation counter. • 7. Calculation Enzyme Activity • CPM of cell control after subtraction of CPM of non-cell control (NCC) was as 100% enzyme activity.
• Dilution of test compounds • Stock 10^−3 M

Another test addresses T2, VDR (Homo sapiens, UniProt P11473).
T2 construct: purchased Biomol
T2 sequence (P11473 1-427): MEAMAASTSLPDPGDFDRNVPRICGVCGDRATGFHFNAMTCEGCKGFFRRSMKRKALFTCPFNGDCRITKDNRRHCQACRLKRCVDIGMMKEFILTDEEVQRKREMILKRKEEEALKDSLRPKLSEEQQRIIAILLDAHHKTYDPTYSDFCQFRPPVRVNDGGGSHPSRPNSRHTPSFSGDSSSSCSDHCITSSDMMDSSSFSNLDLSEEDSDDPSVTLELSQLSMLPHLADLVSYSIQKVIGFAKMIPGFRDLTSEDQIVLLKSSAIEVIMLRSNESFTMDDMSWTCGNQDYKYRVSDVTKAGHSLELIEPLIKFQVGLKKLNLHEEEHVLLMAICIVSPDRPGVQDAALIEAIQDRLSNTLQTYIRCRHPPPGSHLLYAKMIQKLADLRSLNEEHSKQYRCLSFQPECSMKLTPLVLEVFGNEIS
The test is described as follows: VDR binding assay. Conditions: B50: displacement of 50 percent [3H]-1,25(OH)2D3 from human recombinant VDR. As for the experimental part:
1. VDR 9.4 pmol/μl (human, recombinant, Biomol).
4. TEK300 • Tris-HCI 50 mM • EDTA 1.5 mM • KCI 300 mM Adjust pH to 7.4 (25° C.)
3. Preparation of 1.25(OH)2D3 and test compounds in ethanol
1 μl stock VDR in 2.5 ml TEDK300/Gelatin solution (500 μl/tube), (keep on ice)
• Label tubes according to the following chart, each in triplicate:
• Mixed all tubes via vortex and incubated at room temperature for 1 hour. Added 10 μL of 3H-1,25(OH)2D3 Working Dilution, mixed by vortex and incubated at room temperature for 1 hour 2. Sample processing • Thirty minutes before addition, put Charcoal/Dextran Solution on ice with continuous mixing. Added […] of Charcoal/Dextran Solution to each tube, mixed well and incubated on ice for 30 minutes. Centrifuged @ 2000 rpm for 10 minutes at 4° C. 3. Counting • Pipetted 100 μL of the upper, aqueous phase to a 24 well scintillation counting plate and added 600 μL scintillation fluid per well, covered and mixed well. Counted the plate using a scintillation counter for 5 min/sample. (iv) Calculations: • The amount of 1,25(OH)2D3 to displace 50 percent [^3H]-1,25(OH)2D3 from VDR was calculated as B50 for 1,25(OH)2D3. The VDR binding of other compounds was calculated as B50 relative to a value of 1 for 1,25(OH)2D3.

For test [3], the target named is T1, CYP24. The test is described as follows: In vitro test of ability to inhibit specifically CYP24 (standard protocol). The format is cell-based. Conditions: ketoconazole as control standard.

For orientation: IC50 means the concentration that gives 50% inhibition. On to `C=C1/C(=C\C=C2/CCC[C@]3(C)[C@@H]([C@H](C)CCS(=N)(=O)c4ccccc4)CC[C@@H]23)C[C@@H](O)C[C@@H]1O` (single isomer, unassigned) [I(c)], for which the IC50 stood at 20 nM at CYP24 [1] and 33 nM against CYP24 [2]. The “inhibition of proliferation of SCC-25 cells” value in the test on SCC-25 cells was “act to inhibit the proliferation”.

As for `C=C1CC[C@H](O)C/C1=C/C=C1\CCC[C@]2(C)[C@@H]([C@H](C)CCS(=N)(=O)c3ccccc3)CC[C@@H]12` (stereo partly drawn) [I(m), 24-Phenyl Sulfoximine 1-Nor Vitamin-D3], the IC50 against CYP24 [1] is 120 nM; at VDR, > 2 µM. The “selective inhibition of CYP24” value at CYP24 [3] is recorded as “selectively inhibit”.
